Results: US9625448B2, “Double caged GABA compounds, bis-CNB-GABA” (The Trustees of Princeton University, priority 2014, dated 2017)
Read-outs that look alike come from different tables or passages of the source.

Experiments:
[1] = cited from earlier work
[2] = cited from earlier work; remark: listed apart in the source
GABAA receptors [3] = test: Current evoked by puff of 100 μM GABA and caged compounds around the soma (Matsuzaki et al., 2010); format: cell-based; conditions: for IC33: calculated, q=0.33
Description: (§1) FIG. 26 illustrates whole-cell patch clamp recordings from dentate granule cells of rat hippocampal slices reported by Molnár & Nadler, 2000. […] Holding potential of −80 mV. (Molnár & Nadler, 2000 European Journal of Pharmacology, 391, 255-262, which is incorporated herein by reference as if fully set forth, which is incorporated herein by reference as if fully set forth). […] FIG. 27 illustrates summary of the amplitudes of the current evoked by puff of 100 μM GABA and caged compounds around the soma reported by Matsuzaki et al., 2010. The amplitude was normalized to the mean current that was induced by GABA application alone. Left panel illustrates control (n=7); +10 mM CNI-GABA (n=7). Central panel illustrates control (n=10); +0.4 mM CDNI-GABA (n=10), +1.35 mM CDNI-GABA (n=14); +10 mM CDNI-GABA (n=10). Right panel illustrates control (n=9); +1 mM MNI-Glu (n=4); +10 mM MNI-Glu (n=9). ** p<0.0001, * p<0.01 (Matsuzaki et al., 2010 Nature Chemical Biology, 6, 255-257, which is incorporated herein by reference as if fully set forth). […] Though this is a much higher concentration compared to the IC50 for CNB-GABA, CDNI requires a higher concentration when photolyzed in vitro because of its two-photon sensitivity. Because 10 mM is the concentration used for two-photon uncaging, this antagonism is still practically limiting. […] FIG. 28 illustrates the effects of NI-caged GABA and DPNI-GABA on amplitudes of miniature GABA synaptic currents as reported by Trigo et al., 2009. Referring to FIG. 28 (left), this panel illustrates recordings of miniature synaptic GABA currents in molecular layer interneurons before and during application of 1 mM DPNI-GABA. The initial inward current on diluting the cage into the bath was attributable to contaminating levels of GABA. Referring to FIG. 28 (right), the panel illustrates summary histogram from five cells of the block of spontaneous GABA currents by DPNI-GABA at different concentrations in the bath. (Trigo et al., 2009 Journal of Neuroscience Methods, 181, 159-169, which is incorporated herein by reference as if fully set forth).

[4] = aqueous solution; literature; cited from earlier work
GABAA receptors [5] = conditions: Table 2; Matsuzaki et al. 2010; read-out: IC50 in blocking synaptic GABAA currents; cited from earlier work
[6] = N-position; Wieboldt et al., 1994; cited from earlier work
[7] = tested on: cerebellar molecular layer interneurons; test: Photolysis-evoked GABAergic currents in cerebellar molecular layer interneurons; format: cell-based
Description: The biological properties of our synthetic bis-CNB-GABA were evaluated using whole-cell patch recording from cerebellar molecular layer interneurons.
FIGS. 42A-42E illustrate physiological responses to photolysis of bis-CNB-GABA. FIG. 42A illustrates a cerebellar molecular layer interneuron visualized using Alexa 488 in the patch recording electrode solution. Referring to FIG. 42A, bis-CNB-GABA (0.6 mM) was photolyzed with a 405 nm laser spot in 3 different locations (indicated by 1, 2 and 3). Still referring to FIG. 42A, laser-evoked GABAergic currents are shown on the right panel. Still referring to FIG. 42A, gray traces show individual sweeps and black traces are averages. Still referring to FIG. 42A, the gray sweep at bottom indicates the laser flash (1 ms duration, intensity 5 mW) as recorded using a photodiode. FIG. 42B illustrates bis-CNB-GABA (1.4 mM) was photolyzed with a […] LED at progressively higher flash energies (0.25-1.1 mW, 5-50 ms, 1.25-55 μJ). FIG. 42C illustrates the same experiment as shown in FIG. 42B with Responses to mono-CNB-GABA (50 μM). FIG. 42D illustrates normalized current as a function of relative LED flash energies plotted on a log-log scale. FIG. 42E illustrates laser-evoked whole-cell current recorded in the absence and presence of 3 μM gabazine, a GABA receptor antagonist. Referring to FIG. 42E, a larger flash energy was used in the presence of gabazine.
Referring to FIG. 42A, molecular layer interneurons receive excitatory glutamatergic synapses, as well as inhibitory GABAergic synapses that show a pronounced level of spontaneous activity (gray traces). The effects of bis-CNB-GABA on these synaptic currents were tested.
By contrast, the relationship for mono-O-CNB-GABA was close to linear (log-log slope=1.3±0.1, n=3). For these measurements, evoked currents were normalized to the maximum current observed in the same neuron. […] These power laws are consistent with a process in which each molecule of bis-CNB-GABA must cumulatively undergo two uncaging reactions in order to release an active GABAA agonist.
To test whether bis-CNB-GABA-evoked responses resemble physiological events in their kinetics, we measured the kinetic properties of flash responses. […] This rise time is consistent with the dark reaction time (1.5 ms) for the slower cage, N-mono-CNB-GABA (Wieboldt, R.; Ramesh, D.; Carpenter, B. K; Hess, G. P. Biochemistry, 1994, 33, 1526-1533, which is incorporated herein by reference as if fully set forth). […] These rates approach those of spontaneous events and are among the fastest described for other GABA cages. […]

GABAA receptors [8] = conditions: cited from earlier work
GABAA receptors [9] = test: Miniature GABA synaptic currents in molecular layer interneurons (Trigo et al., 2009); format: cell-based
Description: as §1

cerebellar interneurons = conditions: FIG. 43A, 1 mM; see Trigo et al., 2009; cited from earlier work
GABAA receptors [10] = conditions: cited from earlier work; remark: listed apart in the source

Q: Which “product of extinction coefficient and quantum yield (φ×ε)” value ([1]; caged on the amine) does the source give for `O=C(O)CC[C@H](NC(=O)OCc1cc(=O)oc2cc(O)c(Br)cc12)C(=O)O` [Bhc-glutamate] here?
A: 331 M⁻¹ cm⁻¹

Q: What about the quantum yield ([1]; caged on the amine) of the same molecule?
A: 0.019

Q: And the “product of extinction coefficient and quantum yield (ε×Φ)” value ([1]; literature values)?
A: 371 M⁻¹ cm⁻¹

Q: What about the quantum yield ([1]; literature values) of the same molecule?
A: 0.019

Q: What about the extinction coefficient ([2]; at 368 nm, caged on the amine) of the same molecule?
A: 17,470 M^−1 cm^−1

Q: And the extinction coefficient ([2]; at 369 nm, caged at the carboxylate)?
A: 19,550 M^−1 cm^−1

Q: For `NCCCC(=O)N1CCc2c(OCC(=O)O)c([N+](=O)[O-])cc([N+](=O)[O-])c21` [CDNI-GABA], which “concentration showing 33% reduced response” value (GABAA receptors [3]) is on record?
A: 220 µM

Q: And the IC33 (GABAA receptors [3]; Table 1)?
A: 0.22

Q: And the IC50 (GABAA receptors [3]; from data of Matsuzaki et al., 2010)?
A: 450 µM

Q: And the Stability [4]?
A: Stable

Q: And the IC50 (GABAA receptors [5])?
A: 600 µM

Q: And the “product of extinction coefficient and quantum yield (ε×Φ)” value ([1]; literature values)?
A: 3,840 M^−1 cm^−1

Q: And the quantum yield ([1]; literature values)?
A: 0.6

Q: What about the extinction coefficient ([2]; at 330 nm) of the same molecule?
A: 6,400 M^−1 cm^−1

Q: Which dark reaction time [6] does the source give for `O=C(O)CCCNC(C(=O)O)c1ccccc1[N+](=O)[O-]` (stereo not shown) [N-mono-CNB-GABA] here?
A: 1.5 ms

Q: For `COc1ccc(-c2ccc(=N)n(CCCC(=O)O)n2)cc1` [gabazine], which “effect on currents produced by photolysis of bis-CNB-GABA” value ([7]; 3 μM gabazine) is on record?
A: reversibly eliminated

Q: What about the “effect on responses to photolysis of bis-CNB-GABA” value ([7]; 3 M gabazine) of the same molecule?
A: eliminated these responses

Q: For `COc1ccc([N+](=O)[O-])c2c1CCN2C(=O)CCCN` [MNI-GABA], which “effect on GABAA receptors” value (GABAA receptors [8]; less than CNB-GABA, Palma-Cerda et al., 2012) is on record?
A: antagonistic effect

Q: Which IC50 (GABAA receptors [3]; Table 1, calculated from data of Matsuzaki et al. 2010) does the source give for `COc1ccc([N+](=O)[O-])c2c1CCN2C(=O)CC[C@H](N)C(=O)O` [MNI-glu] here?
A: 1100 µM

Q: What about the IC33 (GABAA receptors [3]; Table 1) of the same molecule?
A: 0.37

Q: And the quantum yield ([1]; literature values)?
A: 0.085

Q: Which IC50 (GABAA receptors [8]; Table 2 footnote 2, Fino et al., 2009, read-out: IC50 in blocking synaptic GABAA currents) does the source give for `CP(C)C.F[P-](F)(F)(F)(F)F.F[P-](F)(F)(F)(F)F.NC(CCC(=O)[O-])C(=O)[O-].[Na+].[Na+].[Ru+2].c1ccc(-c2ccccn2)nc1.c1ccc(-c2ccccn2)nc1` [RuBi-glutamate] here?
A: 300 µM

Q: With `F[P-](F)(F)(F)(F)F.NCCCC(=O)[O-].[Ru+2].c1ccc(-c2ccccn2)nc1.c1ccc(-c2ccccn2)nc1.c1ccc(P(c2ccccc2)c2ccccc2)cc1` [RuBi-GABA, Ruthenium-bipyridine-triphenylphosphine-GABA] as the molecule, how does the “concentrations at which antagonistic GABAA receptor activity is exhibited” value (GABAA receptors [8]; Verde et al., 2008) read?
A: above 20 μM

Q: For `NCCCC(=O)N1CCc2c(OC(COP(=O)(O)O)COP(=O)(O)O)ccc([N+](=O)[O-])c21` [DPNI-GABA], which Stability [4] is on record?
A: Stable

Q: What about the “concentration showing 33% reduction” value (GABAA receptors [9]) of the same molecule?
A: 230 µM

Q: And the IC33 (GABAA receptors [9]; Table 1, calculated, q=0.33)?
A: 0.23 mM

Q: And the IC50 (GABAA receptors [9]; from data of Trigo et al., 2009)?
A: 470 µM

Q: What about the “effect on inward holding current compared with mono-O-CNB-GABA” value (cerebellar interneurons) of the same molecule?
A: similar, though less pronounced

Q: What about the decrease in response (GABAA receptors [10]; 1 mM) of the same molecule?
A: > 50%

Q: What about the IC50 (GABAA receptors [10]; Table 2, cerebellar interneurons, read-out: IC50 in blocking synaptic GABAA currents) of the same molecule?
A: 500 µM

Q: What about the “effect on rise times of IPSCs” value (GABAA receptors [10]; Trigo et al., 2009) of the same molecule?
A: prolongs rise times
